How the values were obtained:
[1] = test system: human rheumatoid synovial fibroblast; experiment: Spontaneous proliferation of human rheumatoid synovial fibroblast; type: cell-based
LPS induced fever = experiment: LPS fever (antipyretic effects); type: in vivo; conditions: rats, LPS 100 μg/kg s.c., p.o.; (95% limits)
Description: LPS fever. An injection of lypopolysaccharide (LPS) at a dose of 100 μg/kg in 5 ml/kg is given subcutaneously, and 2 hours later the temperature is measured using a rectal thermocouple. The rats are then placed into matched treatment groups according to their temperature responses. At time +4 hours, the mTOR inhibitor is administered p.o., and the final temperatures measured again at time +6 hours. The increase in temperature is calculated for each animal and the % inhibition determined for each treatment group compared to the vehicle control group.

IL-1β induced fever = experiment: IL-1 fever (antipyretic effects); type: in vivo; conditions: rats, 100 ng IL-1β i.v., p.o.
Description: IL-1 fever. Baseline temperature is measured and the rats placed into matched groups. The animals are dosed with the mTOR inhibitor (0.5, 2 or 4 mg/kg) p.o., and 30 minutes later given an injection of 100 ng IL-1β i.v. At time +4hours the final temperatures are measured and the % inhibition calculated as for LPS fever.

paw hyperalgesia = experiment: Anti-nociceptive activity in a model of inflammatory pain (intra-plantar yeast hyperalgesia); type: in vivo, male OFA rats
Description: Hyperalgesia is induced by an intra-plantar yeast injection and nociception measured by applying increasing pressure to the foot until the animal vocalizes or withdraws its foot from the pressure pad. The baseline pressure required to induce vocalization or withdrawal of the paw of male OFA rats is measured (−2 hours), followed by an intra-plantar injection of 100 μl of a 20% yeast suspension in water in the hind paw. The rats are treated orally with rapamycin or a derivative thereof (0.5, 2 or 4 mg/kg) or vehicle (saline) p.o. 2 hours later (0 hours), and the pressure test repeated 1 and 2 hours after dosing. The pressure required to induce vocalization or paw withdrawal of the compound-treated rats at these time-points is compared to that of vehicle-treated animals.

rheumatoid arthritis = experiment: Placebo-controlled, double blind clinical trial in RA patients who are methotrexate partial responders; type: in vivo, human; conditions: 6 mg/day in combination with background methotrexate
Description: 120 patients who are methotrexate partial responders are randomized in 2 groups to receive the mTOR inhibitor a) or placebo once daily for 12 weeks while continuing their background methotrexate treatment. There is an initial Screening visit (days −21 to −7) prior to the baseline. Disease status is assessed at the Screening and Baseline visits. During the 12 weeks treatment period the patients will be seen at Weeks 1, 2, 4, 8 and 12 and in the follow-up period at Weeks 14, 16, 20 and 24.
The criteria for inclusion of the patients in the trial: they must have a diagnosis of RA as defined by the […] revised ARA criteria with disease duration of no less than 6 months. All patients must have active RA as defined by the following parameters: • at least 6 swollen and 9 tender joints based on 58/60 joint count upon entry into the study • one of the following: erythrocyte sedimentation rate (ESR) >28 mm/hr, C-reactive protein (CRP)>1.5 mg/dL or morning stiffness>45 minutes
Patients must have received methotrexate for at least 16 weeks and must be on a stable dose (≧7.5 mg/week) and route of administration for at least 8 weeks prior to Day 1. […]
The primary efficacy outcome measure is the attainment of ACR20 criteria for improvement of RA and the proportion of patients in each group meeting the ACR20 criteria is determined. […]

[2] = 4-week toxicity study in rats; type: in vivo
Description: (§1) Rapamycin or derivatives thereof are well tolerated at dosages required for use in accordance with the present invention. For example, the NTEL for Compound A in a 4-week toxicity study is 0.5 mg/kg/day in rats and 1.5 mg/kg/day in monkeys.

[3] = 4-week toxicity study in monkeys; type: in vivo
Description: as §1

Structure (SMILES)	concentration at which suppression is maximal ([1]; synovial cell growth assessed by total intracellular ATP levels)	concentration at which maximal effects are observed ([1]; bromodeoxyuridine method)	suppression of the growth of synovial cells ([1]; by both criteria: bromodeoxyuridine incorporation and direct counting of viable cells)	concentration at which maximal effects are shown ([1]; direct cell counting)	ED50 inhibition of LPS-induced fever (LPS induced fever)	ED50 inhibition of IL-1β-induced fever (IL-1β induced fever)	inhibition of paw hyperalgesia (paw hyperalgesia; 2 mg/kg p.o., 1 hour after dosing)	inhibition of paw hyperalgesia (paw hyperalgesia; 4 mg/kg p.o., 1 hour after dosing)	inhibition of paw hyperalgesia (paw hyperalgesia; 4 mg/kg p.o., 2 hours after dosing)	ACR Responders (in %) to ACR20 (rheumatoid arthritis; Week 2)	ACR Responders (in %) to ACR20 (rheumatoid arthritis; Week 12)	NTEL [2]	NTEL [3]
CO[C@H]1C[C@@H]2CC[C@@H](C)[C@@](O)(O2)C(=O)C(=O)N2CCCC[C@H]2C(=O)O[C@H]([C@H](C)C[C@@H]2CC[C@@H](O)[C@H](OC)C2)CC(=O)[C@H](C)/C=C(\C)[C@@H](O)[C@@H](OC)C(=O)[C@H](C)C[C@H](C)/C=C/C=C/C=C/1C [rapamycin, Rapamycin, reference compound]	10 pM	–	–	–	–	–	–	–	–	–	–	–	–
CO[C@H]1C[C@@H]2CC[C@@H](C)[C@@](O)(O2)C(=O)C(=O)N2CCCC[C@H]2C(=O)O[C@H]([C@H](C)C[C@@H]2CC[C@@H](OCCO)[C@H](OC)C2)CC(=O)[C@H](C)/C=C(\C)[C@@H](O)[C@@H](OC)C(=O)[C@H](C)C[C@H](C)/C=C/C=C/C=C/1C [Compound A, 40-0-(2-hydroxyethyl)-rapamycin]	–	10 pM	significantly suppresses	10 nM	1.9 (1.21-2.41) mg/kg p.o.	< 0.54 mg/kg p.o.	significantly inhibits	significantly inhibits	significantly inhibits	14.8%	36.1%	0.5 mg/kg/day	1.5 mg/kg/day
